# Values quoted from earlier work in patent US20130130972A1, “ARTIFICIAL SWEETNERS AND PERFORMANCE” (priority 2010, published 2013).
# Where a SMILES comes first, the peptide text is derived from it.
# Conditions: typically perceived sweetness, relative to sugar
row,Compound,Sweetness by weight compared to sugar
1,CC1=CC(=O)NS(=O)(=O)O1 [Acesulfame potassium],200×
2,C[C@@H](NC(=O)[C@@H](N)CC(=O)O)C(=O)NC1C(C)(C)SC1(C)C [Alitame],2.000×
3,COC(=O)[C@H](Cc1ccccc1)NC(=O)[C@@H](N)CC(=O)O [Aspartame] (H-Asp-Phe-OMe),160-200×
4,CCOc1ccc(NC(N)=O)cc1 [Dulcin],250×
5,OC[C@@H](O)[C@@H](O)CO [Erythritol],0.7×
6,OCC(O)CO [Glycerol],0.6×
7,CC1(C)[C@@H](O[C@H]2O[C@H](C(=O)O)[C@@H](O)[C@H](O)[C@H]2O[C@@H]2O[C@H](C(=O)O)[C@@H](O)[C@H](O)[C@H]2O)CC[C@]2(C)[C@H]3C(=O)C=C4[C@@H]5C[C@@](C)(C(=O)O)CC[C@]5(C)CC[C@@]4(C)[C@]3(C)CC[C@@H]12 [Glycyrrhizin],50×
8,OC[C@@H](O)[C@@H](O[C@@H]1O[C@H](CO)[C@H](O)[C@H](O)[C@H]1O)[C@H](O)[C@@H](O)CO [Lactitol],0.4×
9,OC[C@@H](O)[C@@H](O[C@H]1O[C@H](CO)[C@@H](O)[C@H](O)[C@H]1O)[C@H](O)[C@@H](O)CO [Maltitol],0.9×
10,OC[C@@H](O)[C@@H](O)[C@H](O)[C@H](O)CO [Mannitol],0.5×
11,COc1ccc(CCC(=O)c2c(O)cc(O[C@@H]3O[C@H](CO)[C@@H](O)[C@H](O)[C@H]3O[C@@H]3O[C@@H](C)[C@H](O)[C@@H](O)[C@H]3O)cc2O)cc1O [Neohesperidin dihydrochalcone],1500×
12,COC(=O)[C@H](Cc1ccccc1)NC(=O)[C@H](CC(=O)O)NCCC(C)(C)C [Neotame],8000×
13,CCCOc1ccc([N+](=O)[O-])cc1N [P-4000],4000×
14,O=C1NS(=O)(=O)c2ccccc21 [Saccharin],300×
15,CC1=CC(=O)NS(=O)(=O)O1.COC(=O)[C@H](Cc1ccccc1)NC(=O)[C@@H](N)CC(=O)O [Salt of aspartame-acesulfame] (H-Asp-Phe-OMe),350×
16,OC[C@@H](O)[C@@H](O)[C@H](O)[C@@H](O)CO [Sorbitol],0.6×
17,OC[C@H]1O[C@H](O[C@]2(CCl)O[C@H](CCl)[C@@H](O)[C@@H]2O)[C@H](O)[C@@H](O)[C@H]1Cl [Sucralose],600×
18,O=C(CO)[C@@H](O)[C@@H](O)[C@H](O)CO [Tagatose],0.92×
19,OC[C@@H](O)[C@H](O)[C@@H](O)CO [Xylitol],1.0×
20,"Brazzein (QDKCKKVYENYPVSKCQLANQCNYDCKLDKHARSGECFYDEKRNLQCICDYCEY; UniProt P56552 1-54, looked up) [natural sugar substitute]",800×
21,Curculin,550×
22,Glucin,300×
23,Mabinlin [Mabinlin Protein],100×
24,Monellin,3000×
25,Pentadin,500×
26,Thaumatin,2000×
